Test results as given in patent US20230102554A1 (GB002, INC., priority 2019, published 2023).
pIC50: −log10 of the molar value.

Assays:
[1] = target: T1, Human PDGFRα, cytoplasmic domain (GST-PDGFRα) (Homo sapiens, UniProt P16234); test: Human PDGFRα biochemical inhibition assay (off-chip Mobility Shift Assay)
T1 construct: made in house

[2] = target: T2, Human PDGFRβ, cytoplasmic domain (GST-PDGFRβ) (Homo sapiens, UniProt P09619); test: Human PDGFRβ biochemical inhibition assay (off-chip Mobility Shift Assay)
T2 construct: made in house
How it was run: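 GST-tagged cytoplasmic domain (aa 557-1106) from baculovirus was incubated 1 h at room temperature with compound, CSKtide, ATP at Km and Mg²⁺ in HEPES buffer, pH 7.5. Phosphorylated and unphosphorylated peptide were separated by off-chip mobility shift, and the product ratio P/(P+S) gave percent inhibition.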

T1 sequence (P16234 550-1089 T674I): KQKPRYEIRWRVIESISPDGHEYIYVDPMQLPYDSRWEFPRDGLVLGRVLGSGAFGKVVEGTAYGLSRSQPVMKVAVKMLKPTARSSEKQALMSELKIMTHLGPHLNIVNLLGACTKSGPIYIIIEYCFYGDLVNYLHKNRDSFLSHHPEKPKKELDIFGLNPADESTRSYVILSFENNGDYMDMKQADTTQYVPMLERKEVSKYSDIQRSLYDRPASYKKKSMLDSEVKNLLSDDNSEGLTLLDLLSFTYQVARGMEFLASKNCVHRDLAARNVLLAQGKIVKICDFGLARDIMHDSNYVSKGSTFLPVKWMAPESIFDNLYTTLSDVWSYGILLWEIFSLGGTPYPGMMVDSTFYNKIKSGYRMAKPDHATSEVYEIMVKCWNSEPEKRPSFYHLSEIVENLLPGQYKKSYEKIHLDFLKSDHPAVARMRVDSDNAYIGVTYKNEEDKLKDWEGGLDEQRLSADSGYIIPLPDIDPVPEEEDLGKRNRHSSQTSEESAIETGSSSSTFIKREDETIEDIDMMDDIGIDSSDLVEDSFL
T2 sequence (P09619 with tags, fused parts or gaps): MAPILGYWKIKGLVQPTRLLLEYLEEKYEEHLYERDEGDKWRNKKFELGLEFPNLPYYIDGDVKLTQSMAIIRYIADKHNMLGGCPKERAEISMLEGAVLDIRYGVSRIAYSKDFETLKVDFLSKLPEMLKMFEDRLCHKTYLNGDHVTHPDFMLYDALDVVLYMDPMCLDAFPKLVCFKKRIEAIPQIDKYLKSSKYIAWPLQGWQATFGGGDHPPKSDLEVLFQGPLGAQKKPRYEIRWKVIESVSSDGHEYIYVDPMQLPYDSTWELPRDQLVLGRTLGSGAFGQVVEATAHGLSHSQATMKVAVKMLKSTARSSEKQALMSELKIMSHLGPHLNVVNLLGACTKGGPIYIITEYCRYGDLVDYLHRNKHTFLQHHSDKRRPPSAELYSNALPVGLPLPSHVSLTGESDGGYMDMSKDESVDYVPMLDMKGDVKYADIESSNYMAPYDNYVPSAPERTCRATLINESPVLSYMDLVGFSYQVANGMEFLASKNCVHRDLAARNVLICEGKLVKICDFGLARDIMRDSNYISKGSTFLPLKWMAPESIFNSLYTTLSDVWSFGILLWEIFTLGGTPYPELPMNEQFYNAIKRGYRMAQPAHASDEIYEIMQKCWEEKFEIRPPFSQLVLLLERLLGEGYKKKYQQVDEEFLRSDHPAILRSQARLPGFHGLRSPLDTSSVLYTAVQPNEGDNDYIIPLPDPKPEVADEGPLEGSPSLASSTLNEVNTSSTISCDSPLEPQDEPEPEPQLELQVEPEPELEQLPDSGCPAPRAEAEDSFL

| Structure (SMILES) | pIC50 [1] | pIC50 [2] |
| --- | --- | --- |
| CCn1cc2ncc(N[C@@H](C)c3cc(NC(=O)Cc4cc(C)ccn4)ccc3C)nc2n1 [Compound 679, (S)-N-(3-(1-((2-ethyl-2H-pyrazolo[3,4-b]pyrazin-6-yl)amino)ethyl)-4-methylphenyl)-2-(4-methylpyridin-2-yl) acetamide] | > 6.52 | > 6.52 |
| CCn1cc2ncc(N[C@@H](C)c3cccc(NC(=O)Nc4cnc(N(C)C)c(C)c4)c3)nc2n1 [Compound 742, (S)-1-(6-(dimethylamino)-5-methylpyridin-3-yl)-3-(3-(1-((2-ethyl-2H-pyrazolo[3,4-b]pyrazin-6-yl)amino)ethyl)phenyl)urea] | > 6.52 | > 6.52 |
| CCn1cc2ncc(N[C@@H](C)c3cccc(NC(=O)c4ccc(CN5CCN(C)CC5)c(C(F)(F)F)c4)c3)nc2n1 [Compound 423, (S)-N-(3-(1-((2-ethyl-2H-pyrazolo[3,4-b]pyrazin-6-yl)amino)ethyl)phenyl)-4-((4-methylpiperazin-1-yl)methyl)-3-(trifluoromethyl)benzamide] | > 6.52 | > 6.52 |
| CCn1cc2ncc(N[C@@H](C)c3cccc(NC(=O)c4ccc(CN5CCCC5)c(C)c4)c3)nc2n1 [Compound 404, (S)-N-(3-(1-((2-ethyl-2H-pyrazolo[3,4-b]pyrazin-6-yl)amino)ethyl)phenyl)-3-methyl-4-(pyrrolidin-1-ylmethyl) benzamide] | > 6.52 | > 6.52 |
| C[C@H](Nc1cnc2cnn(C)c2n1)c1cccc(NC(=O)Nc2cccnc2)c1 [Compound 730, (S)-1-(3-(1-((1-methyl-1H-pyrazolo[3,4-b]pyrazin-6-yl)amino)ethyl)phenyl)-3-(pyridin-3-yl)urea] | > 6.52 | 6.00 to 6.52 |
| CCn1cc2ncc(N[C@@H](C)c3cccc(NC(=O)c4cnc(NCCOC)c(C)c4)c3)nc2n1 [Compound 392, (S)-N-(3-(1-((2-ethyl-2H-pyrazolo[3,4-b]pyrazin-6-yl)amino)ethyl)phenyl)-6-((2-methoxyethyl)amino)-5-methylnicotinamide] | 6.00 to 6.52 | ≤ 6.00 |
| C[C@H](Nc1cnc2cnn(C)c2n1)c1cccc(NC(=O)c2cc(C(F)(F)F)nn2C)c1 [Compound 160, (S)-1-methyl-N-(3-(1-((1-methyl-1H-pyrazolo[3,4-b]pyrazin-6-yl)amino)ethyl)phenyl)-3-(trifluoromethyl)-1H-pyrazole-5-carboxamide] | > 6.52 | > 6.52 |
| CCn1cc2ncc(N[C@@H](C)c3cccc(NC(=O)c4ccc(CN5CC6(COC6)C5)c(C)c4)c3)nc2n1 [Compound 414, (S)-4-((2-oxa-6-azaspiro[3.3]heptan-6-yl)methyl)-N-(3-(1-((2-ethyl-2H-pyrazolo[3,4-b]pyrazin-6-yl)amino)ethyl)phenyl)-3-methylbenzamide] | > 6.52 | > 6.52 |
| CCn1cc2ncc(N[C@@H](C)c3cccc(NC(=O)c4cnc(CN5CC6(COC6)C5)c(Cl)c4)c3)nc2n1 [Compound 503, (S)-6-((2-oxa-6-azaspiro[3.3]heptan-6-yl)methyl)-5-chloro-N-(3-(1-((2-ethyl-2H-pyrazolo[3,4-b]pyrazin-6-yl)amino)ethyl)phenyl)nicotinamide] | 6.00 to 6.52 | 6.00 to 6.52 |
| C[C@H](Nc1cnc2cn[nH]c2n1)c1cccc(NC(=O)c2cncc(C3COC3)c2)c1 [Compound 97, (S)-N-(3-(1-((1H-pyrazolo[3,4-b]pyrazin-6-yl)amino)ethyl)phenyl)-5-(oxetan-3-yl) nicotinamide] | > 6.52 | > 6.52 |
| CCn1cc2ncc(N[C@@H](C)c3cccc(NC(=O)c4cnc(C5CC5)s4)c3)nc2n1 [Compound 296, (S)-2-cyclopropyl-N-(3-(1-((2-ethyl-2H-pyrazolo[3,4-b]pyrazin-6-yl)amino)ethyl)phenyl)thiazole-5-carboxamide] | > 6.52 | > 6.52 |
| Cc1cncc(C(=O)Nc2cccc([C@H](C)Nc3cnc4ccn(-c5cnn(C)c5)c4n3)c2)c1 [Compound 86, (S)-5-methyl-N-(3-(1-((5-(1-methyl-1H-pyrazol-4-yl)-5H-pyrrolo[2,3-b]pyrazin-3-yl)amino)ethyl)phenyl) nicotinamide] | > 6.52 | > 6.52 |
| C[C@H](Nc1cnc2cnn(C)c2n1)c1cccc(NC(=O)c2cncc(Br)c2)c1 [Compound 111, (S)-5-bromo-N-(3-(1-((1-methyl-1H-pyrazolo[3,4-b]pyrazin-6-yl)amino)ethyl)phenyl)nicotinamide] | > 6.52 | > 6.52 |
| C[C@H](Nc1cnc2cnn(C)c2n1)c1cccc(NC(=O)c2cc(C(C)(C)C)n(C)n2)c1 [Compound 166, (S)-5-(tert-butyl)-1-methyl-N-(3-(1-((1-methyl-1H-pyrazolo[3,4-b]pyrazin-6-yl)amino)ethyl)phenyl)-1H-pyrazole-3-carboxamide] | > 6.52 | > 6.52 |
| CCn1cc2ncc(N[C@@H](C)c3cc(NC(=O)c4ccc(N5CCN(C)CC5)c(Cl)c4)ccc3F)nc2n1 [Compound 413, (S)-3-chloro-N-(3-(1-((2-ethyl-2H-pyrazolo[3,4-b]pyrazin-6-yl)amino)ethyl)-4-fluorophenyl)-4-(4-methylpiperazin-1-yl) benzamide] | > 6.52 | > 6.52 |
| CCn1cnc2ccc(C(=O)Nc3cccc([C@H](C)Nc4cnc5cnn(C)c5n4)c3)cc21 [Compound 74, (S)-1-ethyl-N-(3-(1-((1-methyl-1H-pyrazolo[3,4-b]pyrazin-6-yl)amino)ethyl)phenyl)-1H-benzo[d]imidazole-6-carboxamide] | > 6.52 | > 6.52 |
| CCn1cc2ncc(N[C@@H](C)c3cccc(NC(=O)c4cncc(F)c4)c3)nc2n1 [Compound 355, (S)-N-(3-(1-((2-ethyl-2H-pyrazolo[3,4-b]pyrazin-6-yl)amino)ethyl)phenyl)-5-fluoronicotinamide] | 6.00 to 6.52 | ≤ 6.00 |
| Cc1cncc(C(=O)Nc2cccc([C@H](C)Nc3cnc4cn(C)nc4n3)c2)c1 [Compound 274, (S)-5-methyl-N-(3-(1-((2-methyl-2H-pyrazolo[3,4-b]pyrazin-6-yl)amino)ethyl)phenyl)nicotinamide] | > 6.52 | ≤ 6.00 |
| CC(C)c1cc(C(=O)Nc2cccc([C@H](C)Nc3cnc4cnn(C)c4n3)c2)n(C)n1 [Compound 165, (S)-3-isopropyl-1-methyl-N-(3-(1-((1-methyl-1H-pyrazolo[3,4-6]pyrazin-6-yl)amino)ethyl)phenyl)-1H-pyrazole-5-carboxamide] | > 6.52 | > 6.52 |
| C[C@H](Nc1cnc2cnn(C)c2n1)c1cccc(NC(=O)c2cnc3ccsc3c2)c1 [Compound 49, (S)-N-(3-(1-((1-methyl-1H-pyrazolo[3,4-b]pyrazin-6-yl)amino)ethyl)phenyl) thieno[3,2-b]pyridinc-6-carboxamide] | > 6.52 | > 6.52 |
| Cc1cncc(C(=O)Nc2cccc([C@H](C)Nc3cnc4ccn(CCO)c4n3)c2)c1 [Compound 83, (S)-N-(3-(1-((5-(2-hydroxyethyl)-5H-pyrrolo[2,3-6]pyrazin-3-yl)amino)ethyl)phenyl)-5-methylnicotinamide] | > 6.52 | ≤ 6.00 |
| CCn1cc2ncc(N[C@@H](C)c3cc(NC(=O)c4ccc(C(F)(F)F)nc4)ccc3C)nc2n1 [Compound 455, (S)-N-(3-(1-((2-ethyl-2H-pyrazolo[3,4-b]pyrazin-6-yl)amino)ethyl)-4-methylphenyl)-6-(trifluoromethyl)nicotinamide] | > 6.52 | > 6.52 |
| CCn1cc2ncc(N[C@@H](C)c3cccc(NC(=O)c4ccc(CN5CCOCC5)cc4)c3)nc2n1 [Compound 374, (S)-N-(3-(1-((2-ethyl-2H-pyrazolo[3,4-b]pyrazin-6-yl)amino)ethyl)phenyl)-4-(morpholinomethyl)benzamide] | 6.00 to 6.52 | 6.00 to 6.52 |
| Cc1cncc(NC(=O)Nc2cccc([C@H](C)Nc3cnc4cnn(C)c4n3)c2)c1 [Compound 731, (S)-1-(3-(1-((1-methyl-1H-pyrazolo[3,4-b]pyrazin-6-yl)amino)ethyl)phenyl)-3-(5-methylpyridin-3-yl)urea] | > 6.52 | > 6.52 |
| CCn1cc2ncc(N[C@@H](C)c3cc(NC(=O)c4ccc(OC(F)F)nc4)ccc3F)nc2n1 [Compound 304, (S)-6-(difluoromethoxy)-N-(3-(1-((2-ethyl-2H-pyrazolo[3,4-b]pyrazin-6-yl)amino)ethyl)-4-fluorophenyl)nicotinamide] | > 6.52 | > 6.52 |
| C[C@H](Nc1cnc2cn(CC3CNC3)nc2n1)c1cc(NC(=O)c2cnc(C(F)(F)F)s2)ccc1F [Compound 391, (S)-N-(3-(1-((2-(azetidin-3-ylmethyl)-2H-pyrazolo[3,4-b]pyrazin-6-yl)amino)ethyl)-4-fluorophenyl)-2-(trifluoromethyl)thiazole-5-carboxamide] | > 6.52 | > 6.52 |
| CCn1cc2ncc(N[C@@H](C)c3cccc(NC(=O)c4ccc(CN5CC[C@H](F)C5)c(C)c4)c3)nc2n1 [Compound 493, N-(3-((S)-1-((2-ethyl-2H-pyrazolo[3,4-b]pyrazin-6-yl)amino)ethyl)phenyl)-4-(((S)-3-fluoropyrrolidin-1-yl)methyl)-3-methylbenzamide] | > 6.52 | > 6.52 |
| CCn1cc2ncc(N[C@@H](C)c3cc(NC(=O)c4cnc(OC)c(C)c4)ccc3F)nc2n1 [Compound 317, (S)-N-(3-(1-((2-ethyl-2H-pyrazolo[3,4-b]pyrazin-6-yl)amino)ethyl)-4-fluorophenyl)-6-methoxy-5-methylnicotinamide] | > 6.52 | > 6.52 |
| CC(C)c1cc(C(=O)Nc2cccc([C@H](C)Nc3cnc4cnn(C)c4n3)c2)no1 [Compound 142, (S)-5-isopropyl-N-(3-(1-((1-methyl-1H-pyrazolo[3,4-b]pyrazin-6-yl)amino)ethyl)phenyl)isoxazole-3-carboxamide] | > 6.52 | > 6.52 |
